Test results taken from PubChem BioAssay (NCI).
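GI50 is the concentration that inhibits growth by half. TGI marks complete inhibition of growth.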

Experiments:
Test in all cases: NCI-60 cell line screen, 384-well format
HT29 colon = tested on: HT29 colon
COLO 205 colon = tested on: COLO 205 colon
HCT-15 colon = tested on: HCT-15 colon
SF-268 CNS = tested on: SF-268 CNS
HL-60(TB) leukemia = tested on: HL-60(TB) leukemia
KM12 colon = tested on: KM12 colon
K-562 leukemia = tested on: K-562 leukemia
NCI/ADR-RES ovarian = tested on: NCI/ADR-RES ovarian
BT-549 breast = tested on: BT-549 breast
NCI-H23 lung = tested on: NCI-H23 lung
EKVX NSCLC = tested on: EKVX NSCLC
M14 melanoma = tested on: M14 melanoma
MALME-3M melanoma = tested on: MALME-3M melanoma
RPMI-8226 leukemia = tested on: RPMI-8226 leukemia
SNB-19 CNS = tested on: SNB-19 CNS
MDA-MB-435 melanoma = tested on: MDA-MB-435 melanoma
SF-539 CNS = tested on: SF-539 CNS
OVCAR-4 ovarian = tested on: OVCAR-4 ovarian
SR leukemia = tested on: SR leukemia
U251 glioblastoma = tested on: U251 glioblastoma
OVCAR-3 ovarian = tested on: OVCAR-3 ovarian
HCC-2998 colon = tested on: HCC-2998 colon
LOX IMVI melanoma = tested on: LOX IMVI melanoma
T-47D breast = tested on: T-47D breast
SK-MEL-5 melanoma = tested on: SK-MEL-5 melanoma
ACHN renal = tested on: ACHN renal
NCI-H322M lung = tested on: NCI-H322M lung
SF-295 CNS = tested on: SF-295 CNS
SNB-75 CNS = tested on: SNB-75 CNS
CAKI-1 renal = tested on: CAKI-1 renal
SW-620 colon = tested on: SW-620 colon
MDA-MB-231 breast = tested on: MDA-MB-231 breast
786-0 renal = tested on: 786-0 renal
HOP-92 NSCLC = tested on: HOP-92 NSCLC
UO-31 renal = tested on: UO-31 renal
SK-MEL-28 melanoma = tested on: SK-MEL-28 melanoma
HCT-116 colon = tested on: HCT-116 colon
A549 NSCLC = tested on: A549 NSCLC
OVCAR-8 ovarian = tested on: OVCAR-8 ovarian
DU-145 prostate = tested on: DU-145 prostate
CCRF-CEM leukemia = tested on: CCRF-CEM leukemia
NCI-H460 NSCLC = tested on: NCI-H460 NSCLC
MOLT-4 leukemia = tested on: MOLT-4 leukemia
NCI-H226 lung = tested on: NCI-H226 lung
RXF 393 renal = tested on: RXF 393 renal
MCF7 breast = tested on: MCF7 breast
TK-10 renal = tested on: TK-10 renal
IGROV1 ovarian = tested on: IGROV1 ovarian
UACC-257 melanoma = tested on: UACC-257 melanoma
SK-OV-3 ovarian = tested on: SK-OV-3 ovarian
HOP-62 NSCLC = tested on: HOP-62 NSCLC
UACC-62 melanoma = tested on: UACC-62 melanoma
A498 renal = tested on: A498 renal
MDA-MB-468 breast = tested on: MDA-MB-468 breast
SN12C renal = tested on: SN12C renal
HS 578T breast = tested on: HS 578T breast
NCI-H522 lung = tested on: NCI-H522 lung
PC-3 prostate = tested on: PC-3 prostate

## Nc1nc(-n2cccn2)nc(-n2cccn2)c1Br
HT29 colon
  GI50: > 100 µM
  TGI: > 100 µM
COLO 205 colon
  GI50: > 100 µM
  TGI: > 100 µM
HCT-15 colon
  GI50: > 100 µM
  TGI: > 100 µM
SF-268 CNS
  GI50: > 100 µM
  TGI: > 100 µM
HL-60(TB) leukemia
  GI50: > 100 µM
  TGI: > 100 µM
KM12 colon
  GI50: > 100 µM
  TGI: > 100 µM
K-562 leukemia
  GI50: > 100 µM
  TGI: > 100 µM
NCI/ADR-RES ovarian
  GI50: > 100 µM
  TGI: > 100 µM
BT-549 breast
  GI50: > 100 µM
  TGI: > 100 µM
NCI-H23 lung
  GI50: > 100 µM
  TGI: > 100 µM
EKVX NSCLC
  GI50: > 100 µM
  TGI: > 100 µM
M14 melanoma
  GI50: > 100 µM
  TGI: > 100 µM
MALME-3M melanoma
  GI50: > 100 µM
  TGI: > 100 µM
RPMI-8226 leukemia
  GI50: > 100 µM
  TGI: > 100 µM
SNB-19 CNS
  GI50: > 100 µM
  TGI: > 100 µM
MDA-MB-435 melanoma
  GI50: > 100 µM
  TGI: > 100 µM
SF-539 CNS
  GI50: > 100 µM
  TGI: > 100 µM
OVCAR-4 ovarian
  GI50: > 100 µM
  TGI: > 100 µM
SR leukemia
  GI50: > 100 µM
  TGI: > 100 µM
U251 glioblastoma
  GI50: > 100 µM
  TGI: > 100 µM
OVCAR-3 ovarian
  GI50: > 100 µM
  TGI: > 100 µM
HCC-2998 colon
  GI50: > 100 µM
  TGI: > 100 µM
LOX IMVI melanoma
  GI50: > 100 µM
  TGI: > 100 µM
T-47D breast
  GI50: > 100 µM
  TGI: > 100 µM
SK-MEL-5 melanoma
  GI50: > 100 µM
  TGI: > 100 µM
ACHN renal
  GI50: > 100 µM
  TGI: > 100 µM
NCI-H322M lung
  GI50: > 100 µM
  TGI: > 100 µM
SF-295 CNS
  GI50: > 100 µM
  TGI: > 100 µM
SNB-75 CNS
  GI50: > 100 µM
  TGI: > 100 µM
CAKI-1 renal
  GI50: > 100 µM
  TGI: > 100 µM
SW-620 colon
  GI50: > 100 µM
  TGI: > 100 µM
MDA-MB-231 breast
  GI50: > 100 µM
  TGI: > 100 µM
786-0 renal
  GI50: > 100 µM
  TGI: > 100 µM
HOP-92 NSCLC
  GI50: > 100 µM
  TGI: > 100 µM
UO-31 renal
  GI50: > 100 µM
  TGI: > 100 µM
SK-MEL-28 melanoma
  GI50: > 100 µM
  TGI: > 100 µM
HCT-116 colon
  GI50: > 100 µM
  TGI: > 100 µM
A549 NSCLC
  GI50: > 100 µM
  TGI: > 100 µM
OVCAR-8 ovarian
  GI50: > 100 µM
  TGI: > 100 µM
DU-145 prostate
  GI50: > 100 µM
  TGI: > 100 µM
CCRF-CEM leukemia
  GI50: > 100 µM
  TGI: > 100 µM
NCI-H460 NSCLC
  GI50: > 100 µM
  TGI: > 100 µM
MOLT-4 leukemia
  GI50: > 100 µM
  TGI: > 100 µM
NCI-H226 lung
  GI50: > 100 µM
  TGI: > 100 µM
RXF 393 renal
  GI50: > 100 µM
  TGI: > 100 µM
MCF7 breast
  GI50: > 100 µM
  TGI: > 100 µM
TK-10 renal
  GI50: > 100 µM
  TGI: > 100 µM
IGROV1 ovarian
  GI50: > 100 µM
  TGI: > 100 µM
UACC-257 melanoma
  GI50: > 100 µM
  TGI: > 100 µM
SK-OV-3 ovarian
  GI50: > 100 µM
  TGI: > 100 µM
HOP-62 NSCLC
  GI50: > 100 µM
  TGI: > 100 µM
UACC-62 melanoma
  GI50: > 100 µM
  TGI: > 100 µM
A498 renal
  GI50: > 100 µM
  TGI: > 100 µM
MDA-MB-468 breast
  GI50: > 100 µM
  TGI: > 100 µM
SN12C renal
  GI50: > 100 µM
  TGI: > 100 µM
HS 578T breast
  GI50: > 100 µM
  TGI: > 100 µM
NCI-H522 lung
  GI50: > 100 µM
  TGI: > 100 µM
PC-3 prostate
  GI50: > 100 µM
  TGI: > 100 µM
